# Laboratory results: the supplement of paper PMC10307832
# What was measured:
# Assay in all cases: relative viability (nuclei count vs DMSO), 5 days (fraction); higher = more cells survive
# Vandetanib + Vorinostat = compound: COc1cc2/c(=N/c3ccc(Br)cc3F)nc[nH]c2cc1OCC1CCN(C)CC1 [Vandetanib] + O=C(CCCCCCC(=O)Nc1ccccc1)NO [Vorinostat] (partner 1 µM)
# How it was run: (§1)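 Each reported value is a median over duplicate plates. It expresses relative viability: treated-well nuclei count divided by vehicle-well nuclei count. Lung cancer cell lines in 1536-well plates were dosed by pin tool a day after seeding, alone with one drug or with a fixed anchor-drug dose plus five library-drug doses (not always all listed) in √10 steps, and nuclei were counted after 5 days.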
# NVP-TAE684 + Vorinostat = compound: COc1cc(N2CCC(N3CCN(C)CC3)CC2)ccc1Nc1ncc(Cl)c(Nc2ccccc2S(=O)(=O)C(C)C)n1 [NVP-TAE684] + O=C(CCCCCCC(=O)Nc1ccccc1)NO [Vorinostat] (partner 1 µM)
# How it was run: as §1
# Vandetanib + OSI-027 = compound: COc1cc2/c(=N/c3ccc(Br)cc3F)nc[nH]c2cc1OCC1CCN(C)CC1 [Vandetanib] + COc1cccc2cc(-c3nc([C@H]4CC[C@H](C(=O)O)CC4)n4ncnc(N)c34)[nH]c12 [OSI-027] (partner 0.5 µM)
# How it was run: as §1
# [1] = compound: C1=CC=C2C(=C1)N=C(S2)C(C#N)C3=NC(=NC=C3)NCCC4=CN=CC=C4 + O=C(c1cc(Cc2n[nH]c(=O)c3ccccc23)ccc1F)N1CCN(C(=O)C2CC2)CC1 [Olaparib] (partner 8 µM)
# How it was run: as §1
Cell Line,relative viability (Vandetanib + Vorinostat; first compound 0.02 µM),relative viability (Vandetanib + Vorinostat; first compound 0.06325 µM),relative viability (Vandetanib + Vorinostat; first compound 0.2 µM),relative viability (Vandetanib + Vorinostat; first compound 0.6325 µM),relative viability (Vandetanib + Vorinostat; first compound 2 µM),relative viability (NVP-TAE684 + Vorinostat; first compound 0.2 µM),relative viability (NVP-TAE684 + Vorinostat; first compound 0.6325 µM),relative viability (NVP-TAE684 + Vorinostat; first compound 2 µM),relative viability (Vandetanib + OSI-027; first compound 0.02 µM),relative viability (Vandetanib + OSI-027; first compound 0.06325 µM),relative viability (Vandetanib + OSI-027; first compound 0.2 µM),relative viability (Vandetanib + OSI-027; first compound 0.6325 µM),relative viability (Vandetanib + OSI-027; first compound 2 µM),relative viability ([1]; first compound 0.01581 µM),relative viability ([1]; first compound 0.1581 µM),relative viability ([1]; first compound 0.5 µM),relative viability ([1]; first compound 0.005 µM),relative viability ([1]; first compound 0.05 µM)
NCI-H1648,0.473,0.506,0.596,0.375,0.627,0.27,0.541,0.181,0.253,0.276,0.28,0.258,0.252,1.02,0.977,1.09,–,–
LXF-289,0.806,0.766,0.768,0.848,0.708,0.671,0.676,0.723,0.774,0.708,0.877,0.771,0.741,1.13,1.17,0.979,0.966,1.1
